Source: US20240269155A1, “METHODS AND USES OF BORON COMPOUNDS IN THE TREATMENT OF NONTUBERCULOUS MYCOBACTERIUM INFECTIONS AND PHARMACEUTICAL COMPOSITIONS FOR TREATMENT OF SAME” (priority 2022, published 2024)
In brackets after ≈: the same amount, converted by molar mass.

Tests used:
[1] = Lung distribution study in mouse; type: in vivo, Balb/C mouse; details: 10 mg/kg po
M. avium = assay: MIC determination (CLSI M24-A2); type: cell-based, Mycobacterium avium; details: Mycobacterium avium, read-out: MIC
Protocol: (§1) The in vitro activity of the parent boron compound described herein was assessed by standard testing procedures such as the determination of minimum inhibitory concentration (MIC) as described in Clinical and Laboratory Standards Institute (CLSI) document M24-A2. Lower MIC values indicate high antibacterial activity, while higher MIC values indicate a reduced antibacterial activity. Generally, MIC values of about ≤2 mg/L indicate a good therapeutic (i.e., suitable for therapy) potency for antibacterial drugs, while MIC values of ≥8 mg/L indicate a lack of therapeutically useful activity for a test compound.
(§2) (MIC ranges from 0.063-2 mg/L).

M. intercelleulare = assay: MIC determination (CLSI M24-A2); type: cell-based, Mycobacterium intercelleulare; details: Mycobacterium, read-out: MIC
Protocol: as §1, §2

M. abscessus = assay: MIC determination (CLSI M24-A2); type: cell-based, Mycobacterium abscessus; details: Mycobacteroides abscessus, read-out: MIC
Protocol: as §1, §2

M. scrofulaceum = assay: MIC determination (CLSI M24-A2); type: cell-based, Mycobacterium scrofulaceum; details: Mycobacterium scrofulaceum, read-out: MIC
Protocol: as §1, §2

M. gordonae = assay: MIC determination (CLSI M24-A2); type: cell-based, Mycobacterium gordonae; details: Mycobacterium gordonae, read-out: MIC
Protocol: as §1, §2

M. fortuitum = assay: MIC determination (CLSI M24-A2); type: cell-based, Mycobacterium fortuitum; details: Mycolicibacterium fortuitum, read-out: MIC
Protocol: as §1, §2

M. peregrinum = assay: MIC determination (CLSI M24-A2); type: cell-based, Mycobacterium peregrinum; details: Mycolicibacterium peregrinum, read-out: MIC
Protocol: as §1, §2

M. smegmatis = assay: MIC determination (CLSI M24-A2); type: cell-based, Mycobacterium smegmatis; details: Mycolicibacterium smegmatis, read-out: MIC
Protocol: as §1, §2

M. massiliense = assay: MIC determination (CLSI M24-A2); type: cell-based, Mycobacterium massiliense; details: Mycobacteroides abscessus, read-out: MIC
Protocol: as §1, §2

Mycobacteria pathogens = assay: MIC against mycobacteria pathogens, summary over species; type: cell-based, nontuberculous Mycobacterium; details: all NTM species tested

## CC(C)C(=O)OC[C@H](COc1cccc2c1B(O)O[C@@H]2CN)OC(=O)C(C)C.Cl [Example 2, (2S)-1-{[(3S)-3-(Aminomethyl)-1-hydroxy-1,3-dihydrobenzo[2,1-c][1,2]oxaborol-7-yl]oxy}-3-[(2-methylpropanoyl)oxy]propan-2-yl 2-methylpropanoate hydrochloride]
[1]; analyte Example 2 (prodrug), lung
  AUClast: 968 ng·h/g
[1]; plasma
  conversion of prodrug to Example 4 in vivo: rapidly converted to Example 4
[1]; Balb/C, analyte Example 2 (prodrug), lung
  half-life: 6.42 h
[1]; Balb/C, analyte Example 2 (prodrug), plasma
  AUC(0-t): 0.0421 ng·h/mL

## CC(C)C(=O)OC[C@H](COc1cccc2c1B(O)O[C@@H]2CN)OC(=O)C(C)C.Cl [drawing 20]
M. avium
  MIC: > 8 µg/mL
M. intercelleulare
  MIC: > 8 µg/mL
M. abscessus
  MIC: > 8 µg/mL

## OB1OCc2cc(F)ccc21 [AN2690]
M. scrofulaceum
  MIC: 8 µg/mL (≈ 52.7 µM)
M. gordonae
  MIC: 8 µg/mL (≈ 52.7 µM)
M. avium
  MIC: > 8 µg/mL
M. intercelleulare
  MIC: > 8 µg/mL
M. abscessus
  MIC: > 8 µg/mL
M. fortuitum
  MIC: > 8 µg/mL
M. peregrinum
  MIC: > 8 µg/mL
M. smegmatis
  MIC: > 8 µg/mL
M. massiliense
  MIC: 4 µg/mL (≈ 26.3 µM)
Mycobacteria pathogens
  activity against all NTM species tested: moderate or no activity
